In patent US20080009418A1, “Selective Inhibitors” (Alchemia LTD., priority 2004, published 2008):

What was measured:
[1] = biological target: T1, Human Melanocortin (MC3) (Homo sapiens, UniProt P41968); assay: Radioligand binding, human melanocortin MC3 membranes, FlashPlate, [125I]-NDP-αMSH; settings: compound at 10 μM, [125I]-NDP-αMSH; for A3: inhibition of radioligand binding: FlashPlate
T1 construct: purchased Perkin Elmer Biosignal
Outline: (§1)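 Cloned human receptor membranes were coated onto FlashPlate wells and incubated with radioligand and compound (added from a 0.5 mM DMSO daughter plate) for 1 hour at room temperature in the dark. Scintillation counting gave percent inhibition, with DMSO defining total and reference ligand defining non-specific binding.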

[2] = biological target: T2, Human Melanocortin (MC4) (Homo sapiens, UniProt P32245); assay: Radioligand binding, human melanocortin MC4 membranes, FlashPlate, [125I]-NDP-αMSH; settings: compound at 10 μM, [125I]-NDP-αMSH; for A4: inhibition of radioligand binding: FlashPlate
T2 construct: purchased Perkin Elmer Biosignal
Outline: as §1

[3] = biological target: T3, Human neurokinin (NK1) (Homo sapiens, UniProt P25103); assay: Radioligand binding, human neurokinin NK1 membranes, filtration, [125I]-Substance P; settings: compound at 10 μM, [125I]-Substance P; for A8: inhibition of radioligand binding: filtration
T3 construct: purchased Perkin Elmer Biosignal
Outline: (§2)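 Percent inhibition of radioligand binding measured on recombinant human membranes: NK1 with [125I]-Substance P, KOP with [3H]-Diprenorphine. Incubation 1 h at room temperature, then harvest onto 0.3% PEI-soaked filters, cold Tris-HCl pH 7.4 washes and scintillation counting; non-specific binding from reference ligand wells.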

[4] = biological target: T4, Human opioid (ORL1) (Homo sapiens, UniProt P41146); assay: Radioligand binding, human opioid ORL1 membranes, FlashPlate, [125I]-Nociceptin; settings: compound at 10 μM, [125I]-Nociceptin; for A10: inhibition of radioligand binding: FlashPlate
T4 construct: purchased Perkin Elmer Biosignal
Outline: as §1

[5] = biological target: T5, Human neuropeptide Y (NPY-Y1) (Homo sapiens, UniProt P25929); assay: Radioligand binding, human neuropeptide Y NPY-Y1 membranes, FlashPlate, [125I]-PYY; settings: compound at 10 μM, [125I]-PYY; for A9: inhibition of radioligand binding: FlashPlate
T5 construct: purchased Perkin Elmer Biosignal
T5 sequence (P25929 1-384): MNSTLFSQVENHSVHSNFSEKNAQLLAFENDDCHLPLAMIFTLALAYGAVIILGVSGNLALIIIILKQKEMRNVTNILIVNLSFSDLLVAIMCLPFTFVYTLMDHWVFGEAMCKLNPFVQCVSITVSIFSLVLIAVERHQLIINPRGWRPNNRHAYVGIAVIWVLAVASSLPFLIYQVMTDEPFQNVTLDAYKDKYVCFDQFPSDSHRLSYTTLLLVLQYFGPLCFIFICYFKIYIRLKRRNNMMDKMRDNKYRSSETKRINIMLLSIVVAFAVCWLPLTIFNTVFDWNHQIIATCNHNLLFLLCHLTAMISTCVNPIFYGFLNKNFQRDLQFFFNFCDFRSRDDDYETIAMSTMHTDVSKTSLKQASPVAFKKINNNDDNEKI
Outline: as §1

[6] = biological target: T6, Human μ-opioid (MOP) (Homo sapiens, UniProt P35372); assay: Radioligand binding, human μ-opioid (MOP) membranes, FlashPlate, [3H]-Naloxone; settings: compound at 10 μM, [3H]-Naloxone; for A7: inhibition of radioligand binding: FlashPlate
T6 construct: purchased Perkin Elmer Biosignal
Outline: as §1

[7] = biological target: T7, Human δ-opioid (DOP) (Homo sapiens, UniProt P41143); assay: Radioligand binding, human δ-opioid (DOP) membranes, FlashPlate, [3H]-Bremazocine; settings: compound at 10 μM, [3H]-Bremazocine; for A1: inhibition of radioligand binding: FlashPlate
T7 construct: purchased Perkin Elmer Biosignal
Outline: as §1

[8] = biological target: T8, Human κ-Opioid (KOP) (Homo sapiens, UniProt P41145); assay: Radioligand binding, human κ-opioid (KOP) membranes, filtration, [3H]-Diprenorphine; settings: compound at 10 μM, [3H]-Diprenorphine; for A2: inhibition of radioligand binding: filtration
T8 construct: purchased Perkin Elmer Biosignal
Outline: as §2

[9] = biological target: T9, Human melanocortin (MC5) (Homo sapiens, UniProt P33032); assay: Radioligand binding, human melanocortin MC5 membranes, FlashPlate, [125I]-NDP-αMSH; settings: compound at 10 μM, [125I]-NDP-αMSH; for A5: inhibition of radioligand binding: FlashPlate
T9 construct: purchased Perkin Elmer Biosignal
Outline: as §1

[10] = biological target: T10, Mouse urotensin (mUR2) (Mus musculus, UniProt Q8VIH9); assay: Radioligand binding, mouse urotensin mUR2 membranes, FlashPlate, [125I]-Urotensin II; settings: compound at 10 μM, [125I]-Urotensin II; for A11: inhibition of radioligand binding: FlashPlate
T10 construct: purchased Perkin Elmer Biosignal
T10 sequence (Q8VIH9 1-385): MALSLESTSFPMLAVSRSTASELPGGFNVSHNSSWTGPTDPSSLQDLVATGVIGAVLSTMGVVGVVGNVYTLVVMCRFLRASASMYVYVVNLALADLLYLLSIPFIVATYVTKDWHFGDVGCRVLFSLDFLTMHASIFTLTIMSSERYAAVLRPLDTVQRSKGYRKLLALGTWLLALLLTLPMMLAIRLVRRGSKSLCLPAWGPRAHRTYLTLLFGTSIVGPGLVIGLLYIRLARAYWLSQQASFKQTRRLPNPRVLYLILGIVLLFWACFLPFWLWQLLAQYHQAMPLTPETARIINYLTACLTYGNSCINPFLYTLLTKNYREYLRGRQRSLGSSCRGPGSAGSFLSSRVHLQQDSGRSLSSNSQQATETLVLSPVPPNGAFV
Outline: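 Cloned mouse urotensin (mUR2) receptor membranes from Perkin Elmer Biosignal were immobilized in FlashPlate microplates using a proprietary coating. Each well got 19.5 μl buffer, then 0.5 μl of DMSO, reference ligand, or compound. Adding 5 μl of [125I]-Urotensin II, diluted to 5× final concentration in binding buffer, started binding. Plates were sealed with TopSeal-A and incubated 1 hour at room temperature in the dark. Wells were counted for 30 seconds each on a TopCount after a 60-second delay, and percentage inhibition was calculated.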

[11] = biological target: T11, Human melanin-concentrating hormone (MCH1) (Homo sapiens, UniProt Q99705); assay: Radioligand binding, human melanin-concentrating hormone MCH1 membranes, FlashPlate, [125I]-S36057; settings: compound at 10 μM; for A6: inhibition of radioligand binding: [125I]-S36057, FlashPlate
T11 construct: purchased Perkin Elmer Biosignal
Outline: as §1

T6 sequence (P35372 whole entry): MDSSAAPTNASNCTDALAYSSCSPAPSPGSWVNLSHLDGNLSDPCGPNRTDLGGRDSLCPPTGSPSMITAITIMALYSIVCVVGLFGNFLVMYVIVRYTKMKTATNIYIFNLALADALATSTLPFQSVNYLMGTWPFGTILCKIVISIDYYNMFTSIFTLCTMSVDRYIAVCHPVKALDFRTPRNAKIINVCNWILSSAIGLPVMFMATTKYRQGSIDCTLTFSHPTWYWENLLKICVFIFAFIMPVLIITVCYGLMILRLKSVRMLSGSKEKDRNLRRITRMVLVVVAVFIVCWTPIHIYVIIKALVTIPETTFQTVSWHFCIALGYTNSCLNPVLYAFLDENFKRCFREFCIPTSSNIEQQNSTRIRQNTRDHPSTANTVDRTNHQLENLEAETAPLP
T4 sequence (P41146 whole entry): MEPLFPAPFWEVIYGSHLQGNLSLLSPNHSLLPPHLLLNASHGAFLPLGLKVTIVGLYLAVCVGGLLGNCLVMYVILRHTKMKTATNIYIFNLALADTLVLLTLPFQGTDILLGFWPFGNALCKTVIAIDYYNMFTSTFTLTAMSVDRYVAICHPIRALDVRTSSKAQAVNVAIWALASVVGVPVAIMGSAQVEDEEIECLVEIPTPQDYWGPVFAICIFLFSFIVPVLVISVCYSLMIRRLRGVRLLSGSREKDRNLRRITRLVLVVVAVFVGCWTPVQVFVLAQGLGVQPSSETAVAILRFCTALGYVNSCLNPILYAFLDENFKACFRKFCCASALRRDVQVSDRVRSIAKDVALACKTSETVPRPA
T3 sequence (P25103 whole entry): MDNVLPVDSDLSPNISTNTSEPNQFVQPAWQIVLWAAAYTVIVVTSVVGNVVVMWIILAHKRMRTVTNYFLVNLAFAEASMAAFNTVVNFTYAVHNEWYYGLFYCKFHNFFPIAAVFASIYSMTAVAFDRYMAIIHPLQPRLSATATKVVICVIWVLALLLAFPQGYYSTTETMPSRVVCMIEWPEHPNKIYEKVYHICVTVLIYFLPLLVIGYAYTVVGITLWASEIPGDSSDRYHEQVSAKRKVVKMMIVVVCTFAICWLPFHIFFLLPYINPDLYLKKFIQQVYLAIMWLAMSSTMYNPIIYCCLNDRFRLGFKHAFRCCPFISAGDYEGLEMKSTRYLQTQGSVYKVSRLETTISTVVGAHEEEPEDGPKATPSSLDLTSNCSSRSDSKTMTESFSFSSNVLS
T8 sequence (P41145 whole entry): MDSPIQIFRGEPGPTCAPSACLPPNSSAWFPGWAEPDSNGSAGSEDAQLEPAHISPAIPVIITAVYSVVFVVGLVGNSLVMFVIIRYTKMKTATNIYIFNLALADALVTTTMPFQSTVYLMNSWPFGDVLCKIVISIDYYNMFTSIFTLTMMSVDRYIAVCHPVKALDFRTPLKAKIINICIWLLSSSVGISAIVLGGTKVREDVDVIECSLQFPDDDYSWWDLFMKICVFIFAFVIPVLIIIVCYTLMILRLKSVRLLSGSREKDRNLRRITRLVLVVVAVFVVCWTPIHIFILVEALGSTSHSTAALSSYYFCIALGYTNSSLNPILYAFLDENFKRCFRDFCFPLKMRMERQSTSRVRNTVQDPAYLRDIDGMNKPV
T1 sequence (P41968 whole entry): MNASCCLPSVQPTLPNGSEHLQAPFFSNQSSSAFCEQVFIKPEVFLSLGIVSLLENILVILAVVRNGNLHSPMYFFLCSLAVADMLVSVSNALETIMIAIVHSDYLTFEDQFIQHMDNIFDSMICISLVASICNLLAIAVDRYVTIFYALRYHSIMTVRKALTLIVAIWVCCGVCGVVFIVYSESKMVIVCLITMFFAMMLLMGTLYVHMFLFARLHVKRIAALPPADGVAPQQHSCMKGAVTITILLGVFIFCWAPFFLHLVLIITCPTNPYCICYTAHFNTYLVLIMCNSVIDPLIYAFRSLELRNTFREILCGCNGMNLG
T9 sequence (P33032 whole entry): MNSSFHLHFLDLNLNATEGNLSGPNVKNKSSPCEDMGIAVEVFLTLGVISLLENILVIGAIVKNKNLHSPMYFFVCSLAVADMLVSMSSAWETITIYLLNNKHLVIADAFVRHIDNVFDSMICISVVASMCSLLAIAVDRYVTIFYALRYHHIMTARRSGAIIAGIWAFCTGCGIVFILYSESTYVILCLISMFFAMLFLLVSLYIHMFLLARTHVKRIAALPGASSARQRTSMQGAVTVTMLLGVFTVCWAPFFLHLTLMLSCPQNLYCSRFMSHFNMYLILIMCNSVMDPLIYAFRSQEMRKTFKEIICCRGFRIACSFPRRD
T2 sequence (P32245 whole entry): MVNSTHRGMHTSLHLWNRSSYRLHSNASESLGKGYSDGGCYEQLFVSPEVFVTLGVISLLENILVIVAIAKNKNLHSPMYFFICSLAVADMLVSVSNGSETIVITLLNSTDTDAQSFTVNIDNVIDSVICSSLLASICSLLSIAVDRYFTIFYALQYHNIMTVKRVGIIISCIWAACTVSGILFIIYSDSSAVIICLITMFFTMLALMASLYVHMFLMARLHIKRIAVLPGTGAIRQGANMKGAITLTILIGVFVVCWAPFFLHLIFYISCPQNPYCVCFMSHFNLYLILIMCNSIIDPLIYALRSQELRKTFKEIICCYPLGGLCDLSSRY
T11 sequence (Q99705 whole entry): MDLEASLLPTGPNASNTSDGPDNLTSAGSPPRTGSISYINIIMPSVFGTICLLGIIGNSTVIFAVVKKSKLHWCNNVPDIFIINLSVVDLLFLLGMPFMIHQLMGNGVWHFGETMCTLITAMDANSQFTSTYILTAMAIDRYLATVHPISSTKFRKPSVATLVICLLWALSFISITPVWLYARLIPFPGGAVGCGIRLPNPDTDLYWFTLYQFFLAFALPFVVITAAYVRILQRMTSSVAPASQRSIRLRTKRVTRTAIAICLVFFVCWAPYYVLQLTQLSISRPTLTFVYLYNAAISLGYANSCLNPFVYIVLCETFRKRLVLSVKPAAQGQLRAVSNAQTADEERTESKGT
T7 sequence (P41143 whole entry): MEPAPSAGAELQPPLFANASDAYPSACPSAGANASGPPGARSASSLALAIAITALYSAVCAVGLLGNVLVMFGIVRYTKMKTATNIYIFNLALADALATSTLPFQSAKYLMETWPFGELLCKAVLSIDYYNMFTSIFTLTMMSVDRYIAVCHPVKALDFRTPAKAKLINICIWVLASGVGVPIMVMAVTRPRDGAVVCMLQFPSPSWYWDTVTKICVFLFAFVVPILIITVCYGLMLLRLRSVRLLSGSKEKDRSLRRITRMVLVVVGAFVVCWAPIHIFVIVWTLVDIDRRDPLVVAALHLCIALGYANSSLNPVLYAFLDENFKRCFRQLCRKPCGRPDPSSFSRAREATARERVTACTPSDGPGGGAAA

| Compound | A3: inhibition of radioligand binding, human melanocortin (MC3) [1] | A4: inhibition of radioligand binding, human melanocortin (MC4) [2] | A8: inhibition of radioligand binding, human neurokinin (NK1) [3] | A10: inhibition of radioligand binding, human opioid (ORL1) [4] | A9: inhibition of radioligand binding, human neuropeptide Y (NPY-Y1) [5] | A7: inhibition of radioligand binding, human μ-opioid (MOP) [6] | A1: inhibition of radioligand binding, human δ-opioid (DOP) [7] | A2: inhibition of radioligand binding, human κ-opioid (KOP) [8] | A5: inhibition of radioligand binding, human melanocortin (MC5) [9] | A11: inhibition of radioligand binding, mouse urotensin (mUR2) [10] | A6: inhibition of radioligand binding, human melanin-concentrating hormone (MCH1) ([11]; [125I]-S36057) | A3: inhibition of radioligand binding [1] | A4: inhibition of radioligand binding [2] | A8: inhibition of radioligand binding [3] | A10: inhibition of radioligand binding [4] | A9: inhibition of radioligand binding [5] | A7: inhibition of radioligand binding [6] | A1: inhibition of radioligand binding [7] | A2: inhibition of radioligand binding [8] | A5: inhibition of radioligand binding [9] | other results |
| --- | --- | --- | --- | --- | --- | --- | --- | --- | --- | --- | --- | --- | --- | --- | --- | --- | --- | --- | --- | --- | --- |
| COC[C@H]1OC(OCc2ccc3ccccc3c2)[C@H](NC(=O)CCCNC(=N)N)[C@@H](OCc2ccc(Cl)cc2)[C@@H]1O (stereo partly drawn) [compound 341] | − (“−” indicates less than 50% inhibition at 10 μM) | − (“−” indicates less than 50% inhibition at 10 μM) | + (“+” indicates greater than 50% inhibition at 10 μM) | − (“−” indicates less than 50% inhibition at 10 μM) | − (“−” indicates less than 50% inhibition at 10 μM) | + (“+” indicates greater than 50% inhibition at 10 μM) | − (“−” indicates less than 50% inhibition at 10 μM) | − (“−” indicates less than 50% inhibition at 10 μM) | − (“−” indicates less than 50% inhibition at 10 μM) | − (“−” indicates less than 50% inhibition at 10 μM) | + (“+” indicates greater than 50% inhibition at 10 μM) |  |  |  |  |  |  |  |  |  |  |
| CC(=O)N[C@H]1C(NC(=O)CNC(=O)OC(C)(C)C)O[C@H](CO)[C@@H](O)[C@@H]1OCc1ccccc1 (stereo partly drawn) [compound 359] | − (“−” indicates less than 50% inhibition at 10 μM) | − (“−” indicates less than 50% inhibition at 10 μM) | + (“+” indicates greater than 50% inhibition at 10 μM) | − (“−” indicates less than 50% inhibition at 10 μM) | + (“+” indicates greater than 50% inhibition at 10 μM) | − (“−” indicates less than 50% inhibition at 10 μM) | − (“−” indicates less than 50% inhibition at 10 μM) | − (“−” indicates less than 50% inhibition at 10 μM) | − (“−” indicates less than 50% inhibition at 10 μM) | − (“−” indicates less than 50% inhibition at 10 μM) | − (“−” indicates less than 50% inhibition at 10 μM) |  |  |  |  |  |  |  |  |  |  |
| CSC1O[C@H](COCc2ccc(Cl)cc2)[C@@H](O)[C@@H](OCc2ccc(Cl)cc2)[C@H]1NC(=O)CCCN (stereo partly drawn) [compound 273] |  |  |  |  |  |  |  |  |  |  |  | − (“−” indicates less than 50% inhibition at 10 μM) | − (“−” indicates less than 50% inhibition at 10 μM) | + (“+” indicates greater than 50% inhibition at 10 μM) | − (“−” indicates less than 50% inhibition at 10 μM) | − (“−” indicates less than 50% inhibition at 10 μM) | − (“−” indicates less than 50% inhibition at 10 μM) | − (“−” indicates less than 50% inhibition at 10 μM) | − (“−” indicates less than 50% inhibition at 10 μM) | − (“−” indicates less than 50% inhibition at 10 μM) | A11: inhibition of radioligand binding [10]: − (“−” indicates less than 50% inhibition at 10 μM); A6: inhibition of radioligand binding [11]: − (“−” indicates less than 50% inhibition at 10 μM) |
| CSC1O[C@H](COCc2ccc3ccccc3c2)[C@@H](O)[C@@H](OCc2ccc(Cl)cc2)[C@H]1NC(=O)CCNC(=N)N (stereo partly drawn) [compound 283] |  |  |  |  |  |  |  |  |  |  |  | − (“−” indicates less than 50% inhibition at 10 μM) | + (“+” indicates greater than 50% inhibition at 10 μM) | + (“+” indicates greater than 50% inhibition at 10 μM) | − (“−” indicates less than 50% inhibition at 10 μM) | − (“−” indicates less than 50% inhibition at 10 μM) | − (“−” indicates less than 50% inhibition at 10 μM) | − (“−” indicates less than 50% inhibition at 10 μM) | − (“−” indicates less than 50% inhibition at 10 μM) | + (“+” indicates greater than 50% inhibition at 10 μM) | A11: inhibition of radioligand binding [10]: − (“−” indicates less than 50% inhibition at 10 μM); A6: inhibition of radioligand binding [11]: − (“−” indicates less than 50% inhibition at 10 μM) |
| COC[C@H]1OC(OCc2ccc(Cl)cc2)[C@H](NC(=O)CNC(=N)N)[C@@H](OCc2cccc(O)c2)[C@@H]1O (stereo partly drawn) [compound 137] |  |  |  |  |  |  |  |  |  |  |  |  |  |  |  |  |  |  |  |  | A3 radioligand binding, percentage inhibition [1]: − (“−” indicates less than 50% inhibition at 10 μM); A4 radioligand binding, percentage inhibition [2]: − (“−” indicates less than 50% inhibition at 10 μM); A8 radioligand binding, percentage inhibition [3]: − (“−” indicates less than 50% inhibition at 10 μM); A10 radioligand binding, percentage inhibition [4]: − (“−” indicates less than 50% inhibition at 10 μM); A9 radioligand binding, percentage inhibition [5]: − (“−” indicates less than 50% inhibition at 10 μM); A7 radioligand binding, percentage inhibition [6]: + (“+” indicates greater than 50% inhibition at 10 μM); A1 radioligand binding, percentage inhibition [7]: − (“−” indicates less than 50% inhibition at 10 μM); A2 radioligand binding, percentage inhibition [8]: − (“−” indicates less than 50% inhibition at 10 μM); A5 radioligand binding, percentage inhibition [9]: + (“+” indicates greater than 50% inhibition at 10 μM); A11 radioligand binding, percentage inhibition [10]: − (“−” indicates less than 50% inhibition at 10 μM); A6 radioligand binding, percentage inhibition ([11]; [125I]-S36057): − (“−” indicates less than 50% inhibition at 10 μM) |
| CSC1O[C@H](COCc2ccc3ccccc3c2)[C@@H](O)[C@@H](OCc2ccc(-c3ccccc3)cc2)[C@H]1NC(=O)CCCN (stereo partly drawn) [compound 299] | − (“−” indicates less than 50% inhibition at 10 μM) | + (“+” indicates greater than 50% inhibition at 10 μM) | + (“+” indicates greater than 50% inhibition at 10 μM) | − (“−” indicates less than 50% inhibition at 10 μM) | − (“−” indicates less than 50% inhibition at 10 μM) | − (“−” indicates less than 50% inhibition at 10 μM) | − (“−” indicates less than 50% inhibition at 10 μM) | − (“−” indicates less than 50% inhibition at 10 μM) | − (“−” indicates less than 50% inhibition at 10 μM) | − (“−” indicates less than 50% inhibition at 10 μM) | − (“−” indicates less than 50% inhibition at 10 μM) |  |  |  |  |  |  |  |  |  |  |
